Patent US20190352276A1, “INHIBITORS OF BRUTON'S TYROSINE KINASE” (Joint Stock Company "Biocad", priority 2016, published 2019)
Read-outs that look alike come from different tables or passages of the source.

Assays:
[1] = Permeability through the monolayer of Caco-2 cells; format: in vitro ADME; details: human; for Papp A→B at 2 h, 10 μM / Papp B→A at 2 h, 10 μM: 2 h at 37° C.; for efflux ratio at 2 h, 10 μM: read-out: efflux (Papp B-A/Papp A-B)
Summary of the method: (§1)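 Caco-2 monolayers grown 21 days on 0.4 μm transwell filters, integrity checked with Lucifer Yellow. Compounds at 10 μM were added apically at pH 6.5 (A→B) or basolaterally at pH 7.4 with 1% BSA (B→A) and sampled after 2 h. Concentrations by HPLC; Papp calculated, efflux ratio as Papp B-A/Papp A-B.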

[2] = biological target: T1, recombinant Btk kinase enzyme (Homo sapiens, UniProt Q06187); assay: In vitro inhibition of Btk kinase activity (ADP-Glo); format: biochemical; details: read-out: IC50 kinase BTK
T1 construct: purchased SignalChem B10-10H
T1 sequence (Q06187 whole entry): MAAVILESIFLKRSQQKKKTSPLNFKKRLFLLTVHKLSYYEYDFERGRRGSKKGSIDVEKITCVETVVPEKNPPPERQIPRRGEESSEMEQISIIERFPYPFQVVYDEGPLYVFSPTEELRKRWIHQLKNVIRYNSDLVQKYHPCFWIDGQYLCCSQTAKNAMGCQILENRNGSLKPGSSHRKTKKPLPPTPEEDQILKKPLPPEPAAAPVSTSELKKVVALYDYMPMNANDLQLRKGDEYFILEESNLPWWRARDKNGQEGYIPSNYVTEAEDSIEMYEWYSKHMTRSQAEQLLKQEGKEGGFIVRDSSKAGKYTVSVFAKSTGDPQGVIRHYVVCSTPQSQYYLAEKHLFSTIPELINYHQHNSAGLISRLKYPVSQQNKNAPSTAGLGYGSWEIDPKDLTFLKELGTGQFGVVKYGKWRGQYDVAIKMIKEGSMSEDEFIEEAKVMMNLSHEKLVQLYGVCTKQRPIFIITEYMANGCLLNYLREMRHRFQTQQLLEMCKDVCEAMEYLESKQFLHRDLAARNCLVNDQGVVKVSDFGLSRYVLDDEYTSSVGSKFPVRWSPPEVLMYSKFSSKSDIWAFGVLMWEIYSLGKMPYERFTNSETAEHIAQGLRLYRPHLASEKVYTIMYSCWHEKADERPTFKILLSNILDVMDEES
Summary of the method: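 Recombinant human Btk phosphorylating Poly(Glu,Tyr 4:1) substrate (0.5 mg/mL) with 50 μM ATP, 180 min at 37° C., in presence of inhibitor. ADP formed detected by ADP-Glo luminescence; IC50 from four-parameter logistic fit.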

[3] = biological target: T2, EGFR (Homo sapiens, UniProt P00533); assay: In vitro kinase panel: EGFR; format: biochemical; details: Table 9 kinase panel
T2 construct: purchased SignalChem E10-11G
T2 sequence (P00533 672-1210 limits assumed): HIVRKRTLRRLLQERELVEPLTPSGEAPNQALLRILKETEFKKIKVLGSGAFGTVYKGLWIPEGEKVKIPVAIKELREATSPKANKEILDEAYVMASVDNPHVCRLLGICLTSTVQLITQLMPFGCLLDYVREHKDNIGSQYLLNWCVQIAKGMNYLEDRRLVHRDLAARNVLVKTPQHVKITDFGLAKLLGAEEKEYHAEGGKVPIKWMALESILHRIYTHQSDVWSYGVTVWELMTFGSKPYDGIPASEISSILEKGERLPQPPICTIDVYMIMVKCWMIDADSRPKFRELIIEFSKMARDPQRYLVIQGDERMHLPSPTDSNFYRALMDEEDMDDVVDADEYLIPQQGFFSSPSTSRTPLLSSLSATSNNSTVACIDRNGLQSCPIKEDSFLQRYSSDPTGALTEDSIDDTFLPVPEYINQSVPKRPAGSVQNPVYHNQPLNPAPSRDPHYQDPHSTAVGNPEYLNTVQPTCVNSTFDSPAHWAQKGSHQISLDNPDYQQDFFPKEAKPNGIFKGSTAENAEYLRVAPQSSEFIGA
Protocol: The measurements were carried out in a 25 μL reaction volume using a 96-well plate (Corning, #3642). The kinase enzyme and inhibitor were pre-incubated for 10 minutes in the reaction buffer containing 25 mM of MOPS (pH 7.2), 12.5 mM of 0-glycerophosphate, 27 mM of MgCl2, 2 mM of MnCl2, 5 mM of EGTA, 2 mM of EDTA, 0.3 mM of DTT, and 1.2 mg/mL of bovine serum albumin. Staurosporine (Abcam Biochemicals, ab146588) was used as a reference inhibitor and 0.1% DMSO in the reaction buffer—as a negative control. The solution of 0.5 mg/mL peptide substrate and 50 &M ATP in the same buffer were added; the solution was incubated for 180 minutes at 37° C. To detect the amount of ATP taken up during the kinase reaction, the equivalent amount of ADP (from the ADP Glo Detection Kit (Promega, #V9101)) was used according to the protocol. The reaction mixture was equilibrated to room temperature. 25 µL of ADP-Glo Reagent were added into each well; the plate was incubated for 40 minutes. 50 μL of Kinase Detection Reagent were added; the plate was incubated for 30 minutes. The luminescence was measured with multimode plate reader (Tecan Infinite M200Pro, Switzerland). IC50 values were calculated using Magellan 7.2 software (Tecan, Switzerland) approximating experimental points by four-parameter logistic model with the optimization by Levenberg-Marquardt.
For active compounds selected by screening using the target enzyme BTK, the values of IC50 were determined on a kinase panel: EGFR (SignalChem, #E10-11G), ITK (SignalChem, #I13-10G) and TEC (SignalChem, #T03-10G).

[4] = system: Mino (mantle cell lymphoma); assay: Antiproliferative activity, Mino cells (Alamar Blue); format: cell-based; details: Homo sapiens
Summary of the method: (§2)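 After at least one passage post-thaw, cells were seeded at ≈3*10^4 per well in RPMI-1640 containing 10% FBS. They were treated with compound dilutions (DMSO under 1%) for 72 h and then with Alamar Blue for 14-16 h. Living-cell fluorescence at 540/590 nm gave IC50 values through logistic fitting.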

[5] = system: Z-138 (mantle cell lymphoma); assay: Antiproliferative activity, Z-138 cells (Alamar Blue); format: cell-based; details: Homo sapiens
Summary of the method: as §2

[6] = General cytotoxicity on HepG2 cells (CC50; therapeutic index CC50 HepG2/IC50 Mino); format: cell-based; details: human, HepG2 cells (hepatocellular carcinoma), 72 hours, Alamar Blue
Summary of the method: (§3)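 Cells seeded at 2*10^4 per well in DMEM, compounds added after 24 h at 200 μM to 4 μM final and incubated 72 h. Viability read with Alamar Blue to derive CC50; therapeutic index is CC50 (HepG2) divided by IC50 (Mino).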

[7] = system: HepG2 cells (hepatocellular carcinoma); assay: as above; format: cell-based; details: therapeutic index
Summary of the method: as §3

[8] = system: Caco-2 cells; assay: Permeability through the monolayer of Caco-2 cells; format: in vitro ADME
Summary of the method: as §1

[9] = system: DOHH2 (follicular lymphoma); assay: Antiproliferative activity, DOHH2 cells (Alamar Blue); format: cell-based; details: Homo sapiens, DOHH-2, Table 10, 72 h, average of several tests
Summary of the method: as §2

[10] = Stability in human blood plasma; details: 10 μM in pooled human blood plasma, incubated 4 hours at 37° C.
Protocol: To assess the blood plasma stability of the drug candidates, we used pooled human blood plasma taken from ten healthy donors. The initial solution (10 Mm in DMSO) was diluted with pooled blood plasma to 10 μM (test solution). The test solution had been incubated for 4 hours in a dry block heater at 37° C. We determined peak areas of the compounds corresponding to the start of the test (before incubating) and the end of the test (after incubating in a dry block heater at 37° C.) by HPLC using Agilent1200 chromatograph (Agilent, USA) with preliminary protein precipitation with acetonitrile. We used gradient elution (1 mL/min flow rate). We determined amount of substance in the sample in % after incubation.
We evaluated the stability of the compounds.

[11] = Chemical stability in artificial gastric fluid (SGF without enzymes); details: 10 μM in SGF without enzymes, pH=1.4, 37° C.
[12] = Table 10, 72 h, average of several tests
[13] = Table 10, average of several tests

Row | SMILES | Papp A→B at 2 h, 10 μM [1] [×10⁻⁶ cm/s] | Papp B→A at 2 h, 10 μM [1] [×10⁻⁶ cm/s] | efflux ratio at 2 h, 10 μM [1] | IC50 ([2]; Table 9 kinase panel) [µM] | IC50 [3] [µM] | IC50 ([4]; Table 11, 72 h) [µM] | IC50 ([5]; Table 11, 72 h) [µM] | CC50 at 72 h ([6]; Table 11) [µM] | CC50 (HepG2)/IC50 (Mino) ([7]; Table 11) | efflux (Papp B-A/Papp A-B) [8] | IC50 ([2]; Table 8, ADP-Glo) [µM] | IC50 [4, 12] [µM] | IC50 [5, 12] [µM] | IC50 [9] [µM] | CC50 at 72 h [6, 13] [µM] | CC50 (HepG2)/IC50 (Mino) ([7]; Table 10) | Amount of substance in the sample, % (stability in human blood plasma) [10] [%] | Amount of substance in the sample in % (chemical stability) [11] [%]
1 | C=CC(=O)N1CCC[C@@H](n2nc(-c3ccc(Oc4ccncc4)cc3)c3c(N)ncc(C#N)c32)C1 [BCD-BTK-134, (R)-1-(1-acryloylpiperidin-3-yl)-4-amino-3-(4-(pyridin-4-yloxy)phenyl)-1H-pyrazolo[4,3-c]pyridin-7-carbonitrile] | 25.8 | 12 | 0.4 | 0.00116 | 0.127 | 11.6 | 21.2 | 64 | 5.80 |  |  |  |  |  |  |  |  | 
2 | C=CC(=O)N1CCC[C@@H](n2nc(-c3ccc(C(=O)Nc4cc(C(F)(F)F)ccn4)cc3)c3cncc(Cl)c32)C1 [BCD-BTK-210, (R)-4-(1-(1-acryloylpiperidin-3-yl)-7-chloro-1H-pyrazolo[4,3-c]pyridin-3-yl)-N-(4-(trifluoromethyl)pyridin-2-yl)benzamide] | 11.9 | 0.21 |  |  |  |  |  |  |  | 0.02 |  |  |  |  |  |  |  | 
3 | C=CC(=O)N1CCC[C@@H](n2nc(-c3ccc(C(=O)Nc4cc(C(F)(F)CC)ccn4)cc3)c3cncc(F)c32)C1 [BCD-BTK-214, (R)-4-(1-(1-acryloylpiperidin-3-yl)-7-fluoro-1H-pyrazolo[4,3-c]pyridin-3-yl)-N-(4-(1,1-difluoropropyl)pyridin-2-yl)benzamide] | 17.8 | 0.87 |  |  |  |  |  |  |  | 0.05 | 0.0343 | 1.28 | 89.4 | > 100 | > 100 | >77.94 |  | 
4 | C=CC(=O)N1CCC[C@@H](n2nc(-c3ccc(Oc4cccnc4C#N)cc3)c3cncc(Cl)c32)C1 [BCD-BTK-218, 3-(4-{7-chloro-1-[1-(prop-2-enoyl)piperidin-3-yl]-1H-pyrazolo[4,3-c]pyridin-3-yl}phenoxy)pyridine-2-carbonitrile] | 20.2 | 17.4 | 0.86 |  |  |  |  |  |  |  | 0.0555 | 1.1 | 8.58 | 3.55 | 26.2 | 23.92 | 92.0 | 
5 | C=CC(=O)N1CCC[C@@H](n2nc(-c3ccc(C(=O)Nc4cccc(F)n4)cc3)c3cncc(C#N)c32)C1 [BCD-BTK-223, 4-{7-cyano-1-[(3R)-1-(prop-2-enoyl)piperidin-3-yl]-1H-pyrazolo[4,3-c]pyridin-3-yl}-N-(6-fluoropyridin-2-yl)benzamide] | 5.9 | 0.3 |  |  |  |  |  |  |  | 0.05 |  |  |  |  |  |  |  | 96.7
6 | C=CC(=O)N1CCC[C@@H](n2nc(-c3cnc(C(=O)Nc4ccccn4)nc3)c3cncc(Cl)c32)C1 [BCD-BTK-229, (R)-5-(1-(1-acryloylpiperidin-3-yl)-7-chloro-1H-pyrazolo[4,3-c]pyridin-3-yl)-N-(pyridin-2-yl)pyrimidine-2-carboxamide] | 10.7 | 12.2 | 1.14 |  |  |  |  |  |  |  | 0.0439 | 36.3 | 77.1 | 41.2 | > 100 | >2.75 | 83.5 | 99.8
7 | C=CC(=O)N1CCC[C@@H](n2nc(-c3ccc(Oc4cccnc4C#N)cc3)c3c(N)ncc(Cl)c32)C1 [BCD-BTK-236, 3-(4-{4-amino-7-chloro-1-[(3R)-1-(prop-2-enoyl)piperidin-3-yl]-1H-pyrazolo[4,3-c]pyridin-3-yl}phenoxy) pyridine-2-carbonitrile] | 6.51 | 2.87 | 0.44 |  |  |  |  |  |  |  | 0.0174 | 8.93 | 11.1 | 3.79 | 27.1 | 3.03 | 96.8 | 100
8 | C=CC(=O)N1CCC[C@@H](n2nc(-c3ccc(Oc4ccncc4)cc3)c3c(N)nccc32)C1 [BCD-BTK-241, (R)-1-(1-acryloylpiperidin-3-yl)-4-amine-3-(4-(pyridin-4-yloxy)phenyl)-1H-pyrazolo[4,3-c]pyridine] |  |  |  |  | 0.0252 |  |  |  |  |  | 0.01 | 21.3 | 15.5 | 11.5 | 45.4 | 2.13 |  | 
9 | C=CC(=O)N1CC[C@H](n2nc(-c3ccc(Oc4ccncc4)cc3)c3cncc(Cl)c32)C1 [BCD-BTK-266, (S)-1-(3-(7-chloro-3-(4-(pyridin-4-yloxy)phenyl)-1H-pyrazolo[4,3-c]pyridin-1-yl)pyrrolidin-1-yl)prop-2-en-1-one] | 9.5 | 2.2 | 0.23 |  |  |  |  |  |  |  | 0.0132 | 3.61 | 12.6 | 4.99 | 12 | 3.33 | 87.2 | 100
10 | C=CC(=O)N1CCC[C@@H](n2nc(-c3cnc(C(=O)Nc4cc(C(F)(F)CC)ccn4)nc3)c3cncc(Cl)c32)C1 [BCD-BTK-293, (R)-5-(1-(1-acryloylpiperidin-3-yl)-7-chloro-1H-pyrazolo[4,3-c]pyridin-3-yl)-N-(4-(1,1-difluoropropyl)pyridin-2-yl)pyrimidine-2-carboxamide] | 6.17 | 0.37 |  |  |  |  |  |  |  | 0.06 |  | 4.3 | > 50 | > 100 | > 100 | >23.23 |  | 
